In the NIST ThermoML archive (doi:10.1016/j.jct.2011.08.016):
± gives the expanded uncertainty stated by the source.

Conditions: Liquid, Vibrating tube method

CCCCCCC [heptane]
mass density [kg/m3]
Conditions | 313.18 K | 333.04 K | 353.06 K
1000 kPa | 668.09 ± 0.43 | 650.66 ± 0.43 | –
1010 kPa | – | – | 632.6 ± 0.44
2000 kPa | 669.03 ± 0.44 | 651.8 ± 0.44 | 634.02 ± 0.44
3000 kPa | 669.97 ± 0.44 | 652.94 ± 0.45 | 635.41 ± 0.45
4000 kPa | 670.93 ± 0.45 | 654.08 ± 0.45 | 636.78 ± 0.46
5000 kPa | – | 655.23 ± 0.46 | 638.15 ± 0.46
5010 kPa | 671.9 ± 0.45 | – | –
6000 kPa | 672.87 ± 0.46 | 656.38 ± 0.46 | 639.47 ± 0.47
7000 kPa | 673.86 ± 0.47 | 657.54 ± 0.47 | 640.8 ± 0.48
8000 kPa | 674.87 ± 0.47 | 658.65 ± 0.48 | 642.1 ± 0.48
9000 kPa | 675.87 ± 0.48 | 659.81 ± 0.48 | –
9010 kPa | – | – | 643.4 ± 0.49
10000 kPa | 676.86 ± 0.49 | 660.92 ± 0.49 | 644.66 ± 0.5
11000 kPa | 677.85 ± 0.49 | 662.03 ± 0.5 | 645.92 ± 0.5
12000 kPa | 678.83 ± 0.5 | 663.1 ± 0.51 | 647.13 ± 0.51
13000 kPa | 679.81 ± 0.51 | 664.2 ± 0.51 | 648.37 ± 0.52
14000 kPa | 680.76 ± 0.51 | 665.25 ± 0.52 | 649.56 ± 0.53
15000 kPa | 681.7 ± 0.52 | 666.31 ± 0.53 | 650.72 ± 0.54
16000 kPa | 682.62 ± 0.53 | 667.33 ± 0.54 | 651.88 ± 0.54
17000 kPa | 683.53 ± 0.53 | 668.33 ± 0.54 | 653 ± 0.55
18000 kPa | 684.41 ± 0.54 | – | –
18030 kPa | – | 669.34 ± 0.55 | 654.12 ± 0.56
19000 kPa | 685.26 ± 0.55 | 670.26 ± 0.56 | 655.16 ± 0.57
20000 kPa | 686.11 ± 0.56 | 671.2 ± 0.57 | 656.22 ± 0.58
21000 kPa | 686.92 ± 0.57 | – | 657.27 ± 0.59
22000 kPa | 687.67 ± 0.57 | 673.01 ± 0.58 | 658.25 ± 0.59
23000 kPa | 688.42 ± 0.58 | 673.86 ± 0.59 | 659.24 ± 0.6
23910 kPa | 689.07 ± 0.59 | – | –
24000 kPa | – | 674.7 ± 0.6 | 660.2 ± 0.61
25000 kPa | 689.85 ± 0.59 | 675.52 ± 0.61 | 661.14 ± 0.62
